Read-outs that look alike come from different tables or passages of the source.
How the values were obtained:
[1] = cited from earlier work; for Measured or Calculated pKas (first value): first value in cell; for Measured or Calculated pKas (second value): second value in cell
[2] = molecular target: Human Epidermal Growth Factor Receptor 2 (HER2) (Homo sapiens, UniProt P04626); conditions: cited from earlier work
[3] = system: EGFR and HER2 autophosphorylation, downstream MAPK and AKT signaling pathways; conditions: in vitro; cited from earlier work
HER4 = HER4 (Homo sapiens, UniProt Q15303); conditions: cited from earlier work
HER4, sequence (Q15303 26-1308): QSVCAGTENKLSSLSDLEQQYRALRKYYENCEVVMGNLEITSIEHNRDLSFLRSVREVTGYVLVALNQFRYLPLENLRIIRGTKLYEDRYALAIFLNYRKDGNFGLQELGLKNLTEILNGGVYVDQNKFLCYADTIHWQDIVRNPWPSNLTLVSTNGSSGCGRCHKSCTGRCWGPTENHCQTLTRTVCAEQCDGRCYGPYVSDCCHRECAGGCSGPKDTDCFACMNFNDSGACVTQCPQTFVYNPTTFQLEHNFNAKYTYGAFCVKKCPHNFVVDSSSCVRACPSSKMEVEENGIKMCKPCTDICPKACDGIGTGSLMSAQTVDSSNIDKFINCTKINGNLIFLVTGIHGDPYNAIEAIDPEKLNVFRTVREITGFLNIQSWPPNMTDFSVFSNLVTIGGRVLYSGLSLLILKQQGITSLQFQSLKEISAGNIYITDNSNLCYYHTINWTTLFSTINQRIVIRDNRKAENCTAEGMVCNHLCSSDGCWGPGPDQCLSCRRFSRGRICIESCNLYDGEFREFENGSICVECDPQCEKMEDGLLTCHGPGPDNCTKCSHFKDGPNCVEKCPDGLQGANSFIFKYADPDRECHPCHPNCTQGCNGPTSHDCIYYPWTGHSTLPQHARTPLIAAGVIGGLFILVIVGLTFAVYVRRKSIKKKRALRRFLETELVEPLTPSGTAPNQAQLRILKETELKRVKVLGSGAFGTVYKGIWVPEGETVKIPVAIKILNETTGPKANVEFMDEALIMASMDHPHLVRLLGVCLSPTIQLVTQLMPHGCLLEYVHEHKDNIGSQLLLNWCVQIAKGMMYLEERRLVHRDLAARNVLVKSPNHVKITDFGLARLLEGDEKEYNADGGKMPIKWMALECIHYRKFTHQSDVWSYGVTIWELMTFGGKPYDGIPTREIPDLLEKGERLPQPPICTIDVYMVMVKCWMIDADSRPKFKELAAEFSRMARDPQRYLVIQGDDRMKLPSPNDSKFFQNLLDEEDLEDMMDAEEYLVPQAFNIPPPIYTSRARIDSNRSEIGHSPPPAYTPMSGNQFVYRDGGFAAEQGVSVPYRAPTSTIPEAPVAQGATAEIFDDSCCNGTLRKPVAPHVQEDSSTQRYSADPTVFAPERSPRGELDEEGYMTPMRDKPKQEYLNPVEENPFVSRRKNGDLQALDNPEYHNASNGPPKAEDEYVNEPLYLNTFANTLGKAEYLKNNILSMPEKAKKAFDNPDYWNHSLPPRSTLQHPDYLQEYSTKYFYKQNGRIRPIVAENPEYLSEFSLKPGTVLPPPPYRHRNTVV

[4] = system: EGFR and/or HER2 expressing carcinoma cell lines; conditions: in vitro; cited from earlier work
[5] = system: tumor cell lines expressing HER2 and EGFR; conditions: oral administration; cited from earlier work
[6] = cited from earlier work
[7] = Kinetic solubility profiles of palbociclib ASD powders; assay type: physicochemical; conditions: aqueous buffer, thermodynamic from solid; pH 6.5 phosphate buffer, 37 C

Human Epidermal Growth Factor Receptor 2 (HER2), sequence (P04626 23-1255): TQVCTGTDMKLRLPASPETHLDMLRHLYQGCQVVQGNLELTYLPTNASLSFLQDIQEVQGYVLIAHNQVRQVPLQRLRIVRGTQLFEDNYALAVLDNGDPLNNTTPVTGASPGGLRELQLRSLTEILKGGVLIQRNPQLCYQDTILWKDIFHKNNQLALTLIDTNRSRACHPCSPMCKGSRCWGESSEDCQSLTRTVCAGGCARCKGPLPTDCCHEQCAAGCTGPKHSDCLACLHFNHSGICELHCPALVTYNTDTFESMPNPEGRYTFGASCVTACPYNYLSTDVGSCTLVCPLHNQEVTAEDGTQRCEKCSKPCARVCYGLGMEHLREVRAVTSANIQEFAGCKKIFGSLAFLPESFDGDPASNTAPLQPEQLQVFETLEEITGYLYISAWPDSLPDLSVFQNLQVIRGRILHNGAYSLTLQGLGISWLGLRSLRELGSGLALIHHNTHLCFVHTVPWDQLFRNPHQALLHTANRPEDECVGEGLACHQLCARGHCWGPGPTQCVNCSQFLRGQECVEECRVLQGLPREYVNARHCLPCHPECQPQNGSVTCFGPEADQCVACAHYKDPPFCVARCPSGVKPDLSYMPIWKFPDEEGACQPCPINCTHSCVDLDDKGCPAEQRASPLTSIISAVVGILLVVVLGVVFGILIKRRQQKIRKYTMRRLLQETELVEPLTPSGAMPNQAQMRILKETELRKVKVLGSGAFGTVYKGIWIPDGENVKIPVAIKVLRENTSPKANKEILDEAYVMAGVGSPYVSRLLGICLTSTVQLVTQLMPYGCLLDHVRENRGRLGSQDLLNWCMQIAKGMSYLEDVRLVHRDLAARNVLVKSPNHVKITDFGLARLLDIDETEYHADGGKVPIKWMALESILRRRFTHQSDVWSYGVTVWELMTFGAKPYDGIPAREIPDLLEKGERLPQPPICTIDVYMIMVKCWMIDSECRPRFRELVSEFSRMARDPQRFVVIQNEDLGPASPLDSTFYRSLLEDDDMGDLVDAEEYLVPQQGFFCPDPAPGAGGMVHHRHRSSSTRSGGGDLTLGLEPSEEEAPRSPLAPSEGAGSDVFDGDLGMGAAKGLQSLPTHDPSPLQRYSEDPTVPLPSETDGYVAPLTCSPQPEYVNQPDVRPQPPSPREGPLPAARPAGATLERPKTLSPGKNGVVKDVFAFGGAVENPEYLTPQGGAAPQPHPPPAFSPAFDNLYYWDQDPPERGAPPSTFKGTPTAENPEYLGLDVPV

## CC1(C)S[C@@H]2[C@H](NC(=O)[C@H](N)c3ccc(O)cc3)C(=O)N2[C@H]1C(=O)O [Amoxicillin]
[1]
  Measured or Calculated pKas (first value): 3.39
  Measured or Calculated pKas (second value): 6.71

## CC[C@H]1OC(=O)[C@H](C)[C@@H](O[C@H]2C[C@@](C)(OC)[C@@H](O)[C@H](C)O2)[C@H](C)[C@@H](O[C@@H]2O[C@H](C)C[C@H](N(C)C)[C@H]2O)[C@](C)(O)C[C@@H](C)CN(C)[C@H](C)[C@@H](O)[C@]1(C)O [Azithromycin]
[1]
  Measured or Calculated pKas (first value): 7.34

## CCC(C(=O)O)c1ccc(CC(C)C)cc1 (stereo not drawn) [Butibufen]
[1]
  Measured or Calculated pKas (first value): 4.64

## CC(C(=O)O)c1ccc2c(c1)[nH]c1ccc(Cl)cc12 (stereo not drawn) [Carprofen]
[1]
  Measured or Calculated pKas (first value): 4.63

## CN(C)[C@@H]1C(O)=C(C(N)=O)C(=O)[C@@]2(O)C(O)=C3C(=O)c4c(O)ccc(Cl)c4[C@@](C)(O)[C@H]3C[C@@H]12 [Chlortetracycline]
[1]
  Measured or Calculated pKas (first value): 3.33 ± 0.30
  Measured or Calculated pKas (second value): 7.55 ± 0.02

## CC[C@H]1OC(=O)[C@H](C)[C@@H](O[C@H]2C[C@@](C)(OC)[C@@H](O)[C@H](C)O2)[C@H](C)[C@@H](O[C@@H]2O[C@H](C)C[C@H](N(C)C)[C@H]2O)[C@](C)(OC)C[C@@H](C)C(=O)[C@H](C)[C@@H](O)[C@]1(C)O [Clarithromycin]
[1]
  Measured or Calculated pKas (first value): 7.25

## CN1C[C@@H]2C[C@H]1CN2c1cc2c(cc1F)c(=O)c(C(=O)O)cn2C1CC1 [Danofloxacin]
[1]
  Measured or Calculated pKas (first value): 6.07 ± 0.06
  Measured or Calculated pKas (second value): 8.56 ± 0.07

## CN(C)[C@@H]1C(O)=C(C(N)=O)C(=O)[C@@]2(O)C(O)=C3C(=O)c4c(O)ccc(Cl)c4[C@@H](O)[C@H]3C[C@@H]12 [Demeclocycline]
[1]
  Measured or Calculated pKas (first value): 3.37 ± 0.30
  Measured or Calculated pKas (second value): 7.36 ± 0.03

## O=C(O)Cc1ccccc1Nc1c(Cl)cccc1Cl [Diclofenac]
[1]
  Measured or Calculated pKas (first value): 4.16

## CN1CCN(c2cc3c(cc2F)c(=O)c(C(=O)O)cn3-c2ccc(F)cc2)CC1 [Difloxacin]
[1]
  Measured or Calculated pKas (first value): 5.66 ± 0.04
  Measured or Calculated pKas (second value): 7.24 ± 0.06

## C[C@H]1c2cccc(O)c2C(=O)C2=C(O)[C@]3(O)C(=O)C(C(N)=O)=C(O)[C@@H](N(C)C)[C@@H]3[C@@H](O)[C@@H]21 [Doxycycline]
[1]
  Measured or Calculated pKas (first value): 3.02 ± 0.30
  Measured or Calculated pKas (second value): 7.97 ± 0.15

## CCn1cc(C(=O)O)c(=O)c2cc(F)c(N3CCNCC3)nc21 [Enoxacin]
[1]
  Measured or Calculated pKas (first value): 5.05 ± 0.08
  Measured or Calculated pKas (second value): 6.25 ± 0.05

## CCN1CCN(c2cc3c(cc2F)c(=O)c(C(=O)O)cn3C2CC2)CC1 [Enrofloxacin]
[1]
  Measured or Calculated pKas (first value): 5.88 ± 0.03
  Measured or Calculated pKas (second value): 7.74 ± 0.03

## C#Cc1cccc(Nc2ncnc3cc(OCCOC)c(OCCOC)cc23)c1 [Erlotinib]
[1]
  Measured or Calculated pKas (first value): 5.4

## O=C(O)CCC(=O)c1ccc(-c2ccccc2)cc1 [Fenbufen]
[1]
  Measured or Calculated pKas (first value): 4.56

## CN1CCN(c2c(F)cc3c(=O)c(C(=O)O)cn(CCF)c3c2F)CC1 [Fleroxacin]
[1]
  Measured or Calculated pKas (first value): 5.46
  Measured or Calculated pKas (second value): 8.00

## CC(C(=O)O)c1ccc(-c2ccccc2)c(F)c1 (stereo not drawn) [Flurbiprofen]
[1]
  Measured or Calculated pKas (first value): 4.35

## COc1cc2ncnc(Nc3ccc(F)c(Cl)c3)c2cc1OCCCN1CCOCC1 [Gefitinib]
[1]
  Measured or Calculated pKas (first value): 7.2

## CC(C)Cc1ccc(C(C)C(=O)O)cc1 (stereo not drawn) [Ibuprofen]
[1]
  Measured or Calculated pKas (first value): 4.51

## CC(CCc1ccccc1)NCC(O)c1ccc(O)c(C(N)=O)c1 (stereo not drawn) [Labetalol]
[1]
  Measured or Calculated pKas (first value): 7.35

## CN1CCN(c2c(F)cc3c(=O)c(C(=O)O)cn4c3c2OCN4C)CC1 [Marbofloxacin]
[1]
  Measured or Calculated pKas (first value): 5.69 ± 0.10
  Measured or Calculated pKas (second value): 8.02 ± 0.20

## C=C1c2c(Cl)ccc(O)c2C(=O)C2=C(O)[C@]3(O)C(=O)C(C(N)=O)=C(O)[C@@H](N(C)C)[C@@H]3[C@@H](O)[C@H]12 [Meclocycline]
[1]
  Measured or Calculated pKas (first value): 4.05 ± 0.30
  Measured or Calculated pKas (second value): 6.87 ± 0.39

## CCOc1cc2ncc(C#N)c(Nc3ccc(OCc4ccccn4)c(Cl)c3)c2cc1NC(=O)/C=C/CN(C)C [Neratinib]
[2]
  binding to HER2: irreversibly binds
[3]
  EGFR and HER2 autophosphorylation, downstream MAPK and AKT signaling: reduces
HER4
  binding to HER4: irreversibly binds
[4]
  antitumor activity in carcinoma cell lines: antitumor activity
[5]
  tumor growth in mouse xenograft models: inhibited tumor growth

## CC1COc2c(N3CCN(C)CC3)c(F)cc3c(=O)c(C(=O)O)cn1c23 (stereo not drawn) [Ofloxacin]
[1]
  Measured or Calculated pKas (first value): 6.22 ± 0.05
  Measured or Calculated pKas (second value): 7.81 ± 0.08

## COc1ccc2[nH]c([S+]([O-])Cc3ncc(C)c(OC)c3C)nc2c1 (stereo not drawn) [Omeprazole]
[1]
  Measured or Calculated pKas (first value): 4.14
  Measured or Calculated pKas (second value): 8.90

## C=CCOc1ccccc1OCC(O)CNC(C)C (stereo not drawn) [Oxprenolol]
[1]
  Measured or Calculated pKas (first value): 9.62

## CN(C)[C@@H]1C(O)=C(C(N)=O)C(=O)[C@@]2(O)C(O)=C3C(=O)c4c(O)cccc4[C@@](C)(O)[C@H]3[C@H](O)[C@@H]12 [Oxytetracycline]
[1]
  Measured or Calculated pKas (first value): 3.04
  Measured or Calculated pKas (second value): 8.00

## CC(=O)c1c(C)c2cnc(Nc3ccc(N4CCNCC4)cn3)nc2n(C2CCCC2)c1=O [Palbociclib, 6-acetyl-8-cyclopentyl-5-methyl-2-[(5-piperazin-1-ylpyridin-2-yl)amino]pyrido[2,3-d]pyrimidin-7-one]
[6]; pH value below 4
  solubility: high
[6]; pH value higher than 4
  solubility: less than 0.02 mg/ml
[7]
  solubility: < 10 µg/mL

## CCn1cc(C(=O)O)c(=O)c2cnc(N3CCNCC3)nc21 [Pipemidic acid]
[1]
  Measured or Calculated pKas (first value): 5.42 ± 0.05
  Measured or Calculated pKas (second value): 8.18 ± 0.09

## CC(=O)Nc1ccc(OCC(O)CNC(C)C)cc1 (stereo not drawn) [Practolol]
[1]
  Measured or Calculated pKas (first value): 9.41

## CCN(CC)CCOC(=O)c1ccc(N)cc1 [Procaine]
[1]
  Measured or Calculated pKas (first value): 2.28 ± 0.08
  Measured or Calculated pKas (second value): 9.02 ± 0.01

## CC(C)NCC(O)COc1cccc2ccccc12 (stereo not drawn) [Propranolol]
[1]
  Measured or Calculated pKas (first value): 9.49 ± 0.2

## CC[C@H]1OC(=O)[C@H](C)[C@@H](O[C@H]2C[C@@](C)(OC)[C@@H](O)[C@H](C)O2)[C@H](C)[C@@H](O[C@@H]2O[C@H](C)C[C@H](N(C)C)[C@H]2O)[C@](C)(O)C[C@@H](C)/C(=N\OCOCCOC)[C@H](C)[C@@H](O)[C@]1(C)O [Roxithromycin]
[1]
  Measured or Calculated pKas (first value): 9.17 ± 0.30

## O=C(O)c1cn(-c2ccc(F)cc2)c2cc(N3CCNCC3)c(F)cc2c1=O [Sarafloxacin]
[1]
  Measured or Calculated pKas (first value): 5.62 ± 0.08
  Measured or Calculated pKas (second value): 8.18 ± 0.09

## CC(=O)NS(=O)(=O)c1ccc(N)cc1 [Sulfacetamide]
[1]
  Measured or Calculated pKas (first value): 1.95 ± 0.11
  Measured or Calculated pKas (second value): 5.30 ± 0.05

## Nc1ccc(S(=O)(=O)Nc2ccc(Cl)nn2)cc1 [Sulfachloropyridazine]
[1]
  Measured or Calculated pKas (first value): 1.87 ± 0.30
  Measured or Calculated pKas (second value): 5.45 ± 0.06

## Nc1ccc(S(=O)(=O)Nc2ncccn2)cc1 [Sulfadiazine]
[1]
  Measured or Calculated pKas (first value): 2.10
  Measured or Calculated pKas (second value): 6.28

## [H]/N=C(/N)NS(=O)(=O)c1ccc(N)cc1 [Sulfaguanidine]
[1]
  Measured or Calculated pKas (first value): 1.55
  Measured or Calculated pKas (second value): 11.24

## Cc1ccnc(NS(=O)(=O)c2ccc(N)cc2)n1 [Sulfamerazine]
[1]
  Measured or Calculated pKas (first value): 2.17
  Measured or Calculated pKas (second value): 6.77

## Cc1cc(C)nc(NS(=O)(=O)c2ccc(N)cc2)n1 [Sulfamethazine]
[1]
  Measured or Calculated pKas (first value): 2.28
  Measured or Calculated pKas (second value): 7.42

## Cc1nnc(NS(=O)(=O)c2ccc(N)cc2)s1 [Sulfamethizole]
[1]
  Measured or Calculated pKas (first value): 1.86 ± 0.30
  Measured or Calculated pKas (second value): 5.29 ± 0.04

## Nc1ccc(S(=O)(=O)Nc2nccs2)cc1 [Sulfathiazole]
[1]
  Measured or Calculated pKas (first value): 2.08
  Measured or Calculated pKas (second value): 7.07

## CC(C)(C)NC[C@H](O)COc1nsnc1N1CCOCC1 [Timolol]
[1]
  Measured or Calculated pKas (first value): 9.34

## COc1cc(Cc2cnc(N)nc2N)cc(OC)c1OC [Trimethoprim]
[1]
  Measured or Calculated pKas (first value): 3.23 ± 0.30
  Measured or Calculated pKas (second value): 6.76 ± 0.12

## CC[C@H]1OC(=O)C[C@@H](O)[C@H](C)[C@@H](O[C@@H]2O[C@H](C)[C@@H](O[C@H]3C[C@@](C)(O)[C@@H](O)[C@H](C)O3)[C@H](N(C)C)[C@H]2O)[C@@H](CC=O)C[C@@H](C)C(=O)/C=C/C(C)=C/[C@@H]1CO[C@@H]1O[C@H](C)[C@@H](O)[C@@H](OC)[C@H]1OC [Tylosin]
[1]
  Measured or Calculated pKas (first value): 3.31 ± 0.30
  Measured or Calculated pKas (second value): 7.50 ± 0.13

From patent US20220096389A1, “PHARMACEUTICAL COMPOSITIONS OF AMORPHOUS SOLID DISPERSIONS AND METHODS OF PREPARATION THEREOF” (Shenzhen Pharmacin Co., Ltd., priority 2020, published 2022)
